Measured values: patent US9302999B2, “Substituted triazoles as herbicides” (E. I. DU PONT DE NEMOURS AND COMPANY, priority 2012, dated 2016)
Where two headings read alike, the source gives them in different places.

Legend:
Assay type in all cases: in vivo
rice (Oryza sativa) = experiment: Test C flooded paddy test: rice; details: scale 0 to 100 (0 no effect, 100 complete control); for plant injury at 62 g/ha / plant injury at 125 g/ha / plant injury at 250 g/ha / plant injury at 31 g/ha: Oryza sativa, read-out: Plant response rating, Rice
How it was run: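 Plants were grown to the 2-leaf stage, pots flooded to 3 cm above soil, and test compounds applied directly to the paddy water, with that depth held throughout. After 13 to 15 days in a greenhouse, injury was visually rated against controls on a 0 (no effect) to 100 (complete control) scale.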

[1] = system: windgrass (Apera spica-venti); experiment: Test C postemergence: windgrass
Text: At the same time, plants selected from these crop and weed species and also barley (winter barley, Hordeum vulgare), canarygrass (Phalaris minor), chickweed (common chickweed, Stellaria media) windgrass (Apera spica-venti) and deadnettle (henbit deadnettle, Lamium amplexicaule) were planted in pots containing Redi-Earth® planting medium (Scotts Company, 14111 Scottslawn Road, Marysville, Ohio 43041) comprising spaghnum peat moss, vermiculite, wetting agent and starter nutrients and treated with postemergence applications of test chemicals formulated in the same manner. Plants ranged in height from 2 to 18 cm (1- to 4-leaf stage) for postemergence treatments.
(§1) Treated plants and controls were maintained in a greenhouse for 13 to 15 days, after which time all species were compared to controls and visually evaluated. Plant response ratings, summarized in Table C, are based on a scale of 0 to 100 where 0 is no effect and 100 is complete control. A dash (-) response means no test result.

[2] = system: deadnettle (henbit deadnettle, Lamium amplexicaule); experiment: Test D pre-/postemergence: deadnettle
Text: (§2) Seeds of plant species selected from bluegrass (annual bluegrass, Poa annua), blackgrass (Alopecurus myosuroides), canarygrass (Phalaris minor), chickweed (common chickweed, Stellaria media), galium (catchweed bedstraw, Galium aparine), bromegrass, downy (downy bromegrass, Bromus tectorum), field poppy (Papaver rhoeas), field violet (Viola arvensis), foxtail, green (green foxtail, Setaria viridis), deadnettle (henbit deadnettle, Lamium amplexicaule), ryegrass, Italian (Italian ryegrass, Lolium multiflorum), kochia (Kochia scoparia), lambsquarters (Chenopodium album), oilseed rape (Brassica napus), pigweed (Amaranthus retroflexus), Russian thistle (Salsola iberica), chamomile (scentless chamomile, Matricaria inodora), speedwell (bird's-eye speedwell, Veronica persica), barley, spring (spring barley, Hordeum vulgare), wheat, spring (spring wheat, Triticum aestivum), buckwheat, wild (wild buckwheat, Polygonum convolvulus), mustard, wild (wild mustard, Sinapis arvensis), oat, wild (wild oat, Avena fatua), radish, wild (wild radish, Raphanus raphanistrum), windgrass (Apera spica-venti), barley, winter (winter barley, Hordeum vulgare), and wheat, winter (winter wheat, Triticum aestivum) were planted into a silt loam soil and treated preemergence with test chemicals formulated in a non-phytotoxic solvent mixture which included a surfactant. At the same time, these same crop and weed species were planted in pots containing the planting medium comprising spaghnum peat moss, vermiculite, wetting agent and starter nutrients and treated with postemergence applications of the test chemicals formulated in the same manner. Plants ranged in height from 2 to 18 cm (1- to 4-leaf stage).
as §1, with “controlled growth environment” for “greenhouse”, “14” for “13”, “21 days” for “15 days,”, “D,” for “C,”

[3] = system: ducksalad (Heteranthera limosa); experiment: Test B flooded paddy: ducksalad; details: Flood, applied to paddy water at 2-leaf stage, visually evaluated after 13 to 15 days
How it was run: (§3)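 Flooded-pot test: compound dosed into 3 cm of standing water above soil when plants had two leaves. Visual control ratings (0–100) versus untreated plants after 13–15 d.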

[4] = system: field poppy (Papaver rhoeas); experiment: Test D pre-/postemergence: field poppy
Text: as §2
as §1, with “controlled growth environment” for “greenhouse”, “14” for “13”, “21 days” for “15 days,”, “D,” for “C,”

[5] = system: mustard, wild (wild mustard, Sinapis arvensis); experiment: Test D pre-/postemergence: mustard, wild
Text: as §2
as §1, with “controlled growth environment” for “greenhouse”, “14” for “13”, “21 days” for “15 days,”, “D,” for “C,”

[6] = system: chickweed (common chickweed, Stellaria media); experiment: Test D pre-/postemergence: chickweed
Text: as §2
as §1, with “controlled growth environment” for “greenhouse”, “14” for “13”, “21 days” for “15 days,”, “D,” for “C,”

[7] = system: galium (catchweed bedstraw, Galium aparine); experiment: Test D pre-/postemergence: galium; details: Postemergence
Text: as §2
as §1, with “controlled growth environment” for “greenhouse”, “14” for “13”, “21 days” for “15 days,”, “D,” for “C,”

[8] = system: canarygrass (Phalaris minor); experiment: Test D pre-/postemergence: canarygrass
Text: as §2
as §1, with “controlled growth environment” for “greenhouse”, “14” for “13”, “21 days” for “15 days,”, “D,” for “C,”

[9] = system: barnyardgrass (Echinochloa crus-galli); experiment: Test B flooded paddy: barnyardgrass; details: Flood, applied to paddy water at 2-leaf stage, visually evaluated after 13 to 15 days
How it was run: as §3

[10] = Flood (flooded paddy test), 62 g ai/ha, visual rating after 13 to 15 days
[11] = Flood (flooded paddy test), 125 g ai/ha, visual rating after 13 to 15 days
[12] = Flood (flooded paddy test), 250 g ai/ha, visual rating after 13 to 15 days
[13] = 31 g ai/ha, scale 0 to 100 (0 no effect, 100 complete control)
[14] = 62 g ai/ha, scale 0 to 100 (0 no effect, 100 complete control)
[15] = 125 g ai/ha, scale 0 to 100, 0 no effect, 100 complete control
[16] = Postemergence, 31 g ai/ha, scale 0 to 100 (0 no effect, 100 complete control)
[17] = Postemergence, 62 g ai/ha, scale 0 to 100 (0 no effect, 100 complete control)
[18] = Postemergence, 125 g ai/ha, scale 0 to 100, 0 no effect, 100 complete control
[19] = Postemergence, 16 g ai/ha, scale 0 to 100
[20] = Preemergence, 16 g ai/ha, scale 0 to 100 (0 no effect, 100 complete control)
[21] = Preemergence, 31 g ai/ha, scale 0 to 100 (0 no effect, 100 complete control)
[22] = Preemergence, 62 g ai/ha, scale 0 to 100
[23] = Preemergence, 125 g ai/ha, scale 0 to 100

SMILES: COc1nn(-c2ccc(C(F)(F)F)cc2)nc1Cn1ccc(C(F)(F)F)n1 [Compound 17, 4-methoxy-2-[4-(trifluoromethyl)phenyl]-5-[[3-(trifluoromethyl)-1H-pyrazol-1-yl]methyl]-2H-1,2,3-triazole]
- plant injury at 62 g/ha (rice (Oryza sativa); [10]): 15%
- plant injury at 125 g/ha (rice (Oryza sativa); [11]): 35%
- plant injury at 250 g/ha (rice (Oryza sativa); [12]): 45%
- plant injury at 31 g/ha (rice (Oryza sativa); Flood, 31 g ai/ha): 10%

SMILES: Cc1nn(-c2ccc(C(F)(F)F)cc2)nc1Cc1ccnc(C(F)(F)F)c1 [Compound 47, 4-[[5-methyl-2-[4-(trifluoromethyl)phenyl]-2H-1,2,3-triazol-4-yl]methyl]-2-(trifluoromethyl)pyridine]
- Plant response rating, Windgrass [1, 13]: 60
- Plant response rating, Windgrass [1, 14]: 80
- Plant response rating, Windgrass [1, 15]: 85
- Plant response rating, Windgrass ([1]; 250 g ai/ha, scale 0 to 100): 100
- plant injury at 62 g/ha (rice (Oryza sativa); [10]): 50%
- plant injury at 125 g/ha (rice (Oryza sativa); [11]): 60%
- plant injury at 250 g/ha (rice (Oryza sativa); [12]): 60%
- plant injury at 31 g/ha (rice (Oryza sativa); Flood, 31 g ai/ha): 30%

SMILES: Cc1nn(-c2ccc(C(F)(F)F)cc2)nc1Cc1cccc(C(F)(F)F)c1 [Compound 124]
- Plant response rating, Windgrass ([1]; 16 g ai/ha, scale 0 to 100, 0 no effect, 100 complete control): 50
- Plant response rating, Windgrass [1, 13]: 80
- Plant response rating, Windgrass [1, 14]: 95
- Plant response rating, Windgrass [1, 15]: 98
- Plant response rating, Rice (rice (Oryza sativa); [11]): 15
- Plant response rating, Rice (rice (Oryza sativa); [12]): 20
- Plant response rating, Rice (rice (Oryza sativa); Flood, 31 g ai/ha): 0
- Plant response rating, Rice (rice (Oryza sativa); Flood, 62 g ai/ha): 0

SMILES: CCc1nn(-c2ccc(C(F)(F)F)cc2)nc1Oc1cccc(OC(F)(F)F)c1 [Compound 125, 4-ethyl-5-[3-(trifluoromethoxy)phenoxy]-2-[4-(trifluoromethyl)phenyl]-2H-1,2,3-triazole]
- plant injury at 125 g/ha (rice (Oryza sativa); [11]): 0%
- plant injury at 250 g/ha (rice (Oryza sativa); [12]): 10%
- plant injury at 31 g/ha (rice (Oryza sativa); Flood, 31 g ai/ha): 0%
- plant injury at 62 g/ha (rice (Oryza sativa); Flood, 62 g ai/ha): 0%

SMILES: Cc1nn(-c2ccc(F)c(C(F)(F)F)c2)nc1Oc1ccnc(C(F)(F)F)c1 [Compound 147]
- Plant response rating: Deadnettle [2, 16]: 95
- Plant response rating: Deadnettle [2, 17]: 90
- Plant response rating: Deadnettle [2, 18]: 100
- Plant response rating, Deadnettle [2, 19]: 65
- Plant response rating, Deadnettle [2, 20]: 5
- Plant response rating, Deadnettle [2, 21]: 10
- Plant response rating, Deadnettle [2, 22]: 100
- Plant response rating, Deadnettle [2, 23]: 100
- Plant response rating, Ducksalad (0 to 100 scale, 0 is no effect, 100 is complete control) ([3]; 250 g ai/ha): 40
- Plant response rating: Field Poppy [4, 16]: 90
- Plant response rating: Field Poppy [4, 17]: 100
- Plant response rating: Field Poppy [4, 18]: 100
- Plant response rating, Field Poppy [4, 19]: 90
- Plant response rating, Field Poppy [4, 20]: 55
- Plant response rating, Field Poppy [4, 21]: 75
- Plant response rating, Field Poppy [4, 22]: 95
- Plant response rating, Field Poppy [4, 23]: 100
- Plant response rating: Mustard, Wild [5, 16]: 100
- Plant response rating: Mustard, Wild [5, 17]: 100
- Plant response rating: Mustard, Wild [5, 18]: 100
- Plant response rating, Mustard, Wild [5, 19]: 95
- Plant response rating, Mustard, Wild [5, 20]: 55
- Plant response rating, Mustard, Wild [5, 21]: 60
- Plant response rating, Mustard, Wild [5, 22]: 100
- Plant response rating, Mustard, Wild [5, 23]: 95
- Plant response rating: Chickweed [6, 16]: 70
- Plant response rating: Chickweed [6, 17]: 80
- Plant response rating: Chickweed [6, 18]: 80
- Plant response rating, Chickweed [6, 19]: 60
- Plant response rating, Chickweed [6, 20]: 35
- Plant response rating, Chickweed [6, 21]: 85
- Plant response rating, Chickweed [6, 22]: 70
- Plant response rating, Chickweed [6, 23]: 100
- Plant response rating: Galium [7, 13]: 65
- Plant response rating: Galium [7, 14]: 75
- Plant response rating: Galium [7, 15]: 90
- Plant response rating, Galium ([7]; 16 g ai/ha, scale 0 to 100): 55
- Plant response rating: Canarygrass [8, 16]: 35
- Plant response rating: Canarygrass [8, 17]: 55
- Plant response rating: Canarygrass [8, 18]: 80
- Plant response rating, Canarygrass [8, 19]: 15
- Plant response rating, Canarygrass [8, 20]: 5
- Plant response rating, Canarygrass [8, 21]: 35
- Plant response rating, Canarygrass [8, 22]: 100
- Plant response rating, Canarygrass [8, 23]: 100
- Plant response rating, Barnyardgrass (0 to 100 scale, 0 is no effect, 100 is complete control) ([9]; 250 g ai/ha): 55

SMILES: CCCc1nn(-c2ccc(F)cc2)nc1Cc1ccnc(C(F)(F)F)c1 [Compound 153]
- Plant response rating, Ducksalad (0 to 100 scale, 0 is no effect, 100 is complete control) ([3]; 250 g ai/ha): 90
- Plant response rating, Barnyardgrass (0 to 100 scale, 0 is no effect, 100 is complete control) ([9]; 250 g ai/ha): 80

SMILES: Cc1nn(-c2ccc(C(F)(F)F)c(F)c2)nc1Cc1ccnc(C(F)(F)F)c1 [Compound 162]
- Plant response rating, Ducksalad (0 to 100 scale, 0 is no effect, 100 is complete control) ([3]; 125 g ai/ha): 0
- Plant response rating, Barnyardgrass (0 to 100 scale, 0 is no effect, 100 is complete control) ([9]; 125 g ai/ha): 70

SMILES: CCc1nn(-c2ccc(F)cc2)nc1Oc1ccnc(C(F)(F)F)c1 [Compound 166]
- Plant response rating, Ducksalad (0 to 100 scale, 0 is no effect, 100 is complete control) ([3]; 125 g ai/ha): 70
- Plant response rating, Barnyardgrass (0 to 100 scale, 0 is no effect, 100 is complete control) ([9]; 125 g ai/ha): 70

SMILES: CCCc1nn(-c2ccc(C(F)(F)F)c(F)c2)nc1Oc1ccnc(C(F)(F)F)c1 [Compound 185]
- Plant response rating, Ducksalad (0 to 100 scale, 0 is no effect, 100 is complete control) ([3]; 250 g ai/ha): 65
- Plant response rating, Barnyardgrass (0 to 100 scale, 0 is no effect, 100 is complete control) ([9]; 250 g ai/ha): 90

SMILES: CCOc1nn(-c2ccc(Br)cc2)nc1Cc1ccnc(C(F)(F)F)c1 [Compound 189]
- Plant response rating, Ducksalad (0 to 100 scale, 0 is no effect, 100 is complete control) ([3]; 125 g ai/ha): 20
- Plant response rating, Barnyardgrass (0 to 100 scale, 0 is no effect, 100 is complete control) ([9]; 125 g ai/ha): 0
